Experimental data as given in patent US20240109914A1, “IMIDAZOTHIAZOLE COMPOUNDS AND ANALOGS THEREOF AND METHODS FOR TREATING NEMATODE INFECTIONS IN PLANTS” (The Governing Council of The University of Toronto, priority 2021, published 2024).
Where two headings read alike, the source gives them in different places.

Assays:
M. hapla eggs = test: Meloidogyne hapla in vitro egg hatch assay; assay type: in vivo; details: 45 μM; for Number of Hatched Eggs: 8 days at room temperature, about 90 eggs per well, tested once; for Number of Hatched Eggs z-score: 8 days, z-score vs 8 untreated DMSO wells
Description: The M. hapla were originally obtained from a soil sample of muck soil from Ste-Clotilde, Quebec, Canada. Using tweezers, egg masses were carefully removed from root material from infested carrot roots. Eggs were liberated from the egg masses using a mild sodium hypochlorite bleaching protocol, whereby egg masses were bleached with a 10% commercial bleach (sodium hypochlorite) solution for 4 minutes with vigorous shaking, and then washed 5 times with deionized water. 50 μL of deionized water was added to each well of two 96-well polystyrene culture plates, and 0.5 μL of chemical (or DMSO alone) was added to each well. Approximately 90 eggs were added to each well in 49.5 ul of deionized water. The plates were sealed with parafilm and incubated for 8 days at room temperature without shaking in a Tupperware box filled with wet paper towels. After the 8-day incubation, the number of hatched eggs was counted for each treatment and for the untreated controls. Each chemical treatment was tested only once. 8 separate untreated DMSO controls were included in the experiment. The z-score for each treatment was calculated using the mean and standard deviation of the untreated DMSO control wells.

M. chitwoodi J2 larvae = test: Meloidogyne chitwoodi in vitro larval mobility assay; assay type: in vivo; details: Meloidogyne chitwoodi, 48 h, 2 days, average of three replicates, read-out: % Immobile
Description: M. chitwoodi race 1 (the strain commonly found in the pacific northwest of the United States) was used for all experiments, and was maintained on tomato plants (Solanum lycopersicum ‘Rutgers’) as previously described^47. The microwell dose-response experiments were carried out similarly to previously described protocols^44,46. […] The chemicals were tested at 45 μM, and the final concentration of DMSO in each well was 0.5% (v/v). The wells were covered with a plastic adhesive strip, and the lids of the plates were sealed with parafilm. The plates were incubated at 25° C. for 2 days. The percent of worms that were immobile (% immobile) was quantified by counting the number of immobile worms after 2 days of incubation, dividing the number of immobile worms by the total number of worms in the well, and then multiplying by 100. […] The average % immobile value was calculated across the three replicates.

M. incognita J2 larvae = test: Meloidogyne incognita in vitro larval mobility assay; assay type: in vivo; details: 45 μM, 4 days; for Replicate 1 z-score / Replicate 2 z-score: z-score vs untreated DMSO wells; for pest or weed control at 45 µM: Meloidogyne incognita, 96 h
Description: M. incognita (Kofoid & White) Chitwood Race 1 (originally isolated in Maryland) was used for all experiments, and was maintained on pepper (Capsicum annuum L.) cv. PA-136 in a greenhouse as previously described^44. Infective J2 juveniles were collected as described in ref. 45. The microwell dose-response experiments were carried out similarly to previously described protocols^44,46. In brief, 50 μL of deionized water was added to the wells of 96-well polystyrene plates and 0.5 μL of test compound (or DMSO alone) was added to each well. Approximately 35 J2s were then added to each well in 49.5 μL of deionized water. The chemicals were tested at 45 μM, and the final concentration of DMSO in each well was 0.5% (v/v). DMSO alone was added to 3 separate wells. The plates were covered with plastic adhesive strips, and the lids of the plates were sealed with parafilm. The plates were incubated at 25° C. without shaking for 4 days. The percent of worms that were immobile (% immobile) was quantified by counting the number of immobile worms after 4 days of incubation, dividing the number of immobile worms by the total number of worms in the well, and then multiplying by 100. Two replicates were performed for each treatment. The z-score for each treatment was calculated using the mean and standard deviation of the untreated DMSO control wells. The average % immobile value was calculated across the two replicates. A test compound was considered most promising if the z-score was greater than 1.645 in both replicates.

C. elegans = C. elegans dose-response (viability, minimum lethal concentration); assay type: in vivo, Caenorhabditis elegans; details: Caenorhabditis elegans, 72 h, L1 worms, 3 days at 20° C.
Description: Forty microliters of an HB101 E. coli bacterial suspension in liquid NGM (nematode growth media—see ref. 42 for the recipe) was added to each well of a 96-well flat-bottom culture plate, after which approximately 25 synchronized L1 worms, in 10 μl of M9 buffer (see ref. 43 for the recipe), were added to each well. The synchronized L1 worms were obtained from an embryo preparation performed the previous day (see ref. 43 for the protocol). For the L1 assays, 0.5 μl of test compound solution (or DMSO alone) was immediately added to the wells using a multichannel pipette; the final DMSO concentration is 1% (v/v). The worms were incubated for 3 days at 20° C. and the number of viable animals was counted.
At least three biological replicates were performed for each dose-response assay. For each biological replicate, two technical replicates were performed and the numbers of viable animals for each technical replicate were combined (i.e. ˜ 50 worms assayed per concentration). The number of viable worms at each concentration was divided by the corresponding DMSO control value to give the “relative viability” for each concentration. The “relative viability” values were then averaged across the biological replicates. Minimum lethal concentration was defined as the lowest concentration at which at least 20% of worms die.

M. incognita = test: Meloidogyne incognita infectivity assay (soil, tomato roots); assay type: in vivo; details: Meloidogyne incognita, 1344 h, 45 μM in soil, 8 weeks, eggs per mg root relative to DMSO control, read-out: % effectiveness at inhibiting reproduction of M. incognita
Description: An M. incognita population originally collected from grape (Vitis vinifera) in Parlier, California, was used for all experiments, and they were maintained on tomato plants (Solanum lycopersicum ‘Rutgers’) as previously described^47. Infective J2 juveniles were collected as described in ref. 47.

tomato plants = test: Root mass of tomato plants in the soil infectivity assay; details: 45 μM in soil, 8 weeks
[1] = average of the two replicates, read-out: Average % Immobile
[2] = replicate 1, read-out: Replicate 1 % Immobile
[3] = replicate 2, read-out: Replicate 2 % Immobile
[4] = lowest concentration at which at least 20% of worms die, read-out: Minimum Lethal Concentration
[5] = same values in ppm, read-out: Minimum Lethal Concentration (ppm)

Row | SMILES | Number of Hatched Eggs (M. hapla eggs) | Number of Hatched Eggs z-score (M. hapla eggs) | pest or weed control at 45 µM (M. chitwoodi J2 larvae) [%] | Replicate 1 z-score (M. incognita J2 larvae; replicate 1) | Replicate 2 z-score (M. incognita J2 larvae; replicate 2) | pest or weed control at 45 µM (M. incognita J2 larvae; [1]) [%] | pest or weed control at 45 µM (M. incognita J2 larvae; [2]) [%] | pest or weed control at 45 µM (M. incognita J2 larvae; [3]) [%] | minimal effective concentration (C. elegans; [4]) [µM] | minimal effective concentration (C. elegans; [5]) [µg/mL] | pest or weed control at 45 µM (M. incognita) [%] | Normalized root mass (relative to DMSO control) (tomato plants)
1 | O=C(NCCc1ncc(C(F)(F)F)cc1Cl)c1ccccc1C(F)(F)F [Fluopyram, fluopyram, reference compound] | 0 | [4.63] | 100 | [14.82] | [21.99] | 100 | 100 | 100 |  |  |  | 
2 | Cc1c(-c2ccc(Cl)cc2)nc2sccn12 [I-22] | 1 | [4.30] | > 75 | [7.55] | [4.26] | 46.5 | 59.6 | 33.3 | 12.5 | 3.1 |  | 
3 | Clc1ccc(-c2cn3ccoc3n2)cc1 [I-47, 6-(4-chlorophenyl)imidazo[2,1-b]oxazole] | 1 | [4.30] | 62.7 | [14.96] | [15.52] |  | 95.9 | 95.6 | 50 | 10.9 |  | 
4 | Cc1c(-c2ccccc2)nc2sccn12 [I-1] |  |  | 48.2 |  |  |  |  |  | > 100 | > 21.4 |  | 
5 | Cc1cn2cc(-c3ccccc3F)nc2s1 [I-21] |  |  |  | [5.78] | [5.62] | 45.9 | 51 | 40.8 | 50 | 11.6 | 24.4 | 1.24
6 | Cc1cn2cc(-c3ccccc3Br)nc2s1 [I-41] |  |  |  | [3.31] | [6.62] | 42.6 | 38.9 | 46.3 | > 100 | > 29.3 | 6.6 | 1.18
7 | c1cncc(-c2cn3ccsc3n2)c1 [I-45] |  |  | 13.8 | [1.92] | [3.20] | 29.8 | 32.1 | 27.4 | > 100 | > 20.1 |  | 
8 | Cc1csc2nc(-c3cccc(Cl)c3)cn12 [I-25] | 4 | [3.31] |  |  |  |  |  |  | > 100 | > 24.9 | 24.6 | 1.27
9 | Clc1ccc(-c2cn3ccsc3n2)cc1Cl [I-31] | 1 | [4.30] |  | [2.33] | [4.78] | 35.1 | 34.1 | 36.2 | 6.25 | 1.7 | 18.1 | 1.25
10 | Cc1c(-c2cccc(Br)c2)nc2sccn12 [I-35] | 2 | [3.97] |  |  |  |  |  |  | > 50 | 14.7 | 10.2 | 1.26
11 | Cc1cn2cc(-c3ccccc3Cl)nc2s1 [I-30] |  |  |  | [8.34] | [5.62] | 52.1 | 63.5 | 40.8 | > 100 | > 24.9 | 16 | 1.30
12 | Fc1cccc(-c2cn3ccsc3n2)c1 [I-14] | 1 | [4.30] |  | [15.43] | [13.11] | ≥ 75 | 98.2 | 82.2 | 100 | 21.8 | 17.6 | 1.28
13 | Cc1cn2cc(-c3cccc(F)c3)nc2s1 [I-17] | 3 | [3.64] |  |  |  |  |  |  | 100 | 23.2 | 21.8 | 1.30
14 | Clc1ccccc1-c1cn2ccsc2n1 [I-27] | 4 | [3.31] |  | [6.81] | [3.28] | 42 | 56 | 27.9 | 100 | 23.5 | 0 | 1.42
15 | Cc1csc2nc(-c3ccccc3Cl)cn12 [I-29] | 4 | [3.31] |  |  |  |  |  |  | 100 | 24.9 | 15 | 1.14
16 | Cc1c(-c2cccc(Cl)c2)nc2sccn12 [I-24] |  |  |  | [1.68] | [4.78] | 33.6 | 30.9 | 36.2 | 100 | 24.9 | 23.6 | 1.34
